Reference: ChEMBL document CHEMBL1142028, “(E)-Phenyl- and -heteroaryl-substituted O-benzoyl-(or acyl)oximes as lipoprotein-associated phospholipase A2 inhibitors” (Bioorg Med Chem Lett, 2005)

Target: T1, Platelet-activating factor acetylhydrolase (Homo sapiens, UniProt Q13093)
T1 sequence (Q13093 whole entry): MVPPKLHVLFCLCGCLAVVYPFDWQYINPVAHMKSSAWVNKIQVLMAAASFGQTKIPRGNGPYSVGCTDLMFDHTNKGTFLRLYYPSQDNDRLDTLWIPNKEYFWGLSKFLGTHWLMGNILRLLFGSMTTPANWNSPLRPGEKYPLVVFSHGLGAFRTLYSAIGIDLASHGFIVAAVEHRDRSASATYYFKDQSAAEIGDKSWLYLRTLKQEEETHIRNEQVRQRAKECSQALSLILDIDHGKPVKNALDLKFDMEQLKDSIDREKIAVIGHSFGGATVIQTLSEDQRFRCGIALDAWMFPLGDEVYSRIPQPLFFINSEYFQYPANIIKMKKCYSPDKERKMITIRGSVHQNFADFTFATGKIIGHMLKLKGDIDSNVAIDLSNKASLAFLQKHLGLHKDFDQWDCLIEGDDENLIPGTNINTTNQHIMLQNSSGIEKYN
Assay: In vitro inhibitory activity against human lipoprotein-associated phospholipase A2; NA - not active; call rule not given here

SMILES: O=C(ON=C(c1ccccc1)c1ccccc1)c1ccccc1 [(DIPHENYLMETHYLIDENE)AMINO BENZOATE]
- IC50: Not Active
